Laboratory results: patent publication US11582989B2, “Stress management in livestock” (Charles Sturt University, priority 2013, dated 2023)
Read-outs that look alike come from different tables or passages of the source.

Columns and labels:
[1] = Weight gain of Merino ewe lambs after mulesing and tail docking; type: in vivo
[2] = tested on: C57B16/Ola male mice; experiment: Novel arena test, freezing response episodes (AnyMaze); type: in vivo; details: potassium bromide 250 mg/L in drinking water for 7 days, vs normal drinking water
Procedure: Animals were placed in the centre of an open arena which was unfamiliar to them and their rate and range of movement tracked by digital recognition software. Distance, speed and time spent immobile were analysed using the AnyMaze™ software. Results were compared statistically using SPSS™.

[3] = Weight gain under mildly stressful management conditions; type: in vivo, mice; details: potassium bromide 250 mg/L in drinking water, 7 days, mild stress, vs control
Procedure: (§1) A model system was established to induce stress in rodents by repeated behavioural testing using the AnyMaze™ rodent behavioural monitoring system. […] At the end of 7 days animals were subjected to a number of behavioural tests to assess level of stress. Weight gain was also analysed in the treatment group by recording body weight over the initial 7 day period.
(§2) C57B16/Ola male mice at 5 weeks of age were purchased from MAS Client Services, Monash University, Melbourne, Australia. Animals were weighed at the start of the test period and daily for the duration of testing.
(§3) Animals were weighed 3 times during the experiment (7 days). To initiate a mildly stressful situation, animals were exposed to novel arena, parallel rod and tremor tests using the mouse AnyMaze™ system (AnyMaze™, Stoelting, U.S.A.).

[4] = tested on: C57B16/Ola male mice; details: potassium bromide 250 mg/L in drinking water for 7 days
Procedure: as §1, §2, §3

[5] = cited from earlier work
[6] = horse (Raidal and Edwards, 2008); cited from earlier work
[7] = sheep, 120 mg/kg
Procedure: (§4) NaBr solution was administered through the cephalic vein using a 21 gauge needle over a period of 1 minute. Sheep were restrained in a seated position. Blood samples were collected at 0, 1, 5, 10, 15, 20 and 30 min and then at 1, 2, 3, 4, 6, 8, 10, 12, 24 h. Samples thereafter were collected at 12 h intervals to 240 h then at 24 h intervals to 336 h. A final sample was taken at 528 h. For each sample, the initial 2 mL of blood collected was discarded and a sterile syringe used to withdraw 5 mL of blood which was then placed into a plain separator blood tube (Vacuette: Greiner Bio-one). The cannulas were flushed with 3 mL of 5% heparinised saline after each collection. Each blood sample was left to stand for 30 min before centrifugation at 2000 g for 5 min. Serum was harvested and stored at −20° C. until analysis.
(§5) KBr solution was administered via an orogastric tube, then flushed with 500 mL water. Blood samples were collected at 0, 1, 2, 3, 4, 6, 8, 10, 12, 24 h, then at 12 h intervals to 240 h, then at 24 h intervals to 336 h. A final sample was taken at 504 h. When collecting blood samples at 1 h through to 10 h the rumen was auscultated, over the caudo-dorsal blind sack, to determine if the high salt load affected rumen motility.

[8] = sheep
Procedure: as §4, §5
Absorbance was measured with a spectrophotometer at 440 nm.

[9] = Podell and Fenner, 1993; cited from earlier work
[10] = 300 mg/kg LW oral bromide immediately prior to procedure, n=20

For `[Br-].[K+]` [potassium bromide], the “weight gain compared to untreated counterparts” value ([1]; 300 mg/kg LW oral at time of mulesing and tail docking, over 51 days) was “trend towards increased weight gain”, the “freezing response episodes in novel arena test” value [2] was “trend was towards decreased freezing episodes” and the weight gain [3] was “significant weight gain”.

For `Br` [bromide], the “mean weight gain between day 7 and 14” value ([1]; 300 mg/kg LW oral bromide) was 1.80 ± 0.30 kg, the “mean live weight on day 51” value [1, 10] was 22.17 ± 0.86 kg and the “mean weight gain after 51 days” value [1, 10] was 8.52 ± 0.57 kg. For the same molecule, the “Day 1-7 mean weight change” value ([1]; 300 mg/kg LW oral bromide, first seven days) was -0.564 ± 1.29 kg, the “weight gain compared to untreated counterparts” value ([1]; 300 mg/kg LW oral, after 14 days) was “enhanced weight gain” and the live weight gain ([1]; over 51 days) was 0.16 kg per head per day. For the same molecule, the “weight gain per head per day” value ([1]; over the 51 days of the trial) was 0.57, the “increase in production gain” value ([1]; vs control, over 51 days) was 11% and the “freezing response episodes in novel arena test” value [2] was “trend towards decreased freezing response episodes”. The signs of ataxia [4] was “no signs of ataxia”, the parallel rod touches ([4]; vs normal drinking water) was “significantly more touches” and the weight gain [3] was “increased weight gain”. For the same molecule, the t½ ([5]; dog (Trepanier and Babish, 1995)) was 12 to 24 days, the bioavailability ([5]; dog (Trepanier and Babish, 1995b)) was 40% and the estimated bioavailability [6] was 32-38%. For the same molecule, the t½ [6] was “approximately 3 d”, the adverse reactions ([7]; IV and PO groups) was “No adverse reactions were noted” and the “duration of tranquilising effect post-injection” value ([7]; IV) was 1 to 2 h. For the same molecule, the “tranquilising effect (subjective observation)” value ([7]; IV) was “mild tranquilising effect”, the neurological effects ([7]; PO group) was “no discernable neurological effects” and the rumen motility ([7]; PO group, auscultated 1 h to 10 h) was “no observed alteration in rumen motility”. The t½ ([8]; IV) was 16.2 days, the “absorption following PO administration” value ([8]; PO) was “absorbed rapidly” and the “half-life (t½)” value ([8]; PO) was “approximately 14 days”. The “serum Br concentration range” value ([8]; PO 120 mg/kg, for 14 d) was 200 to 400 mg/L and the “anticonvulsant range (Br concentration)” value [9] was 1.0 to 2.0 mg/mL.
